Laboratory results from patent US20120041172A1, “METHOD FOR THE MANUFACTURE OF DEGARELIX” (Polypeptide Laboratories A/S, priority 2009, published 2012).
Non-standard residues stand in square brackets, D forms with d. Residues, ends and D or L forms follow the SMILES beside them. *: point of attachment. dPhe(4-NHCONH2) = NC(=O)Nc1ccc(C[C@@H](N)C(=O)O)cc1; Dihydroorotyl(S) = O=C1C[C@@H](C(=O)*)NC(=O)N1; dPhe(4-Cl) = N[C@H](Cc1ccc(Cl)cc1)C(=O)O; Phe(4-NH2) = Nc1ccc(C[C@H](N)C(=O)O)cc1; d2Nal = N[C@H](Cc1ccc2ccccc2c1)C(=O)O; Lys(iPr) = CC(C)NCCCC[C@H](N)C(=O)O; d3Pal = N[C@H](Cc1cccnc1)C(=O)O

How the values were obtained:
[1] = Stability of degarelix in DBU/DMF and piperidine/DMF (Fmoc-removal conditions), HPLC; assay type: physicochemical; conditions: 20 h
Experimental: Stability of degarelix in DBU/DMF and piperidine/DMF. The stability of degarelix was tested under conditions corresponding to those used for removal of the Fmoc-group during SPPS. The hydroorotic group in the side chain of 4Aph(Hor), amino acid residue no. 5 in the sequence of degarelix, is known to be sensitive to base and rearrange to a hydantoinacetyl group. All SPPS procedures known to the inventors had been based on Boc-chemistry.
Samples of degarelix were dissolved in 20% piperidine/DMF; 2% DBU in DMF, and 2% DBU+5% water in DMF; respectively. The samples were analysed by HPLC after 20 h and the amount of the hydantoin analogue determined.
If 5% water was present, too (simulating wet DMF), the amount was increased to 7%.

[2] = Instability of the hydroorotic moiety under basic conditions (DCHA in wet 2-BuOH); assay type: physicochemical; conditions: 67 mM in wet 2-BuOH with 167 mM (2.5 eq) DCHA, 31° C, after 25 h
Experimental: The following experiment provided further proof of the instability of the hydrooroic moiety under basic conditions. Z-Ser(tBu)-4Aph(Hor)-D-4Aph(tBu-Cbm)-Leu-OH.DCHA (67 mM) was dissolved in wet 2-BuOH with 167 mM (2.5 eq) DCHA at 31° C. After 25 h, 1.3% of the hydantoin analogue and 0.3% of the hydrolysed intermediate had been formed.

Compound	amount of the hydantoin analogue formed ([1]; 2% DBU + 5% water in DMF (simulating wet DMF)) [%]	amount of the hydantoin analogue formed ([1]; 2% DBU in DMF) [%]	formation of the hydantoin analogue ([1]; 20% piperidine in DMF)	hydantoin analogue formed [2] [%]	hydrolysed intermediate formed [2] [%]
CC(=O)N[C@H](Cc1ccc2ccccc2c1)C(=O)N[C@H](Cc1ccc(Cl)cc1)C(=O)N[C@H](Cc1cccnc1)C(=O)N[C@@H](CO)C(=O)N[C@@H](Cc1ccc(NC(=O)[C@@H]2CC(=O)NC(=O)N2)cc1)C(=O)N[C@H](Cc1ccc(NC(N)=O)cc1)C(=O)N[C@@H](CC(C)C)C(=O)N[C@@H](CCCCNC(C)C)C(=O)N1CCC[C@H]1C(=O)N[C@H](C)C(N)=O [degarelix, Ac-D-2Nal-D-Phe(4Cl)-D-3 Pal-Ser-4Aph(Hor)-D-4Aph(Cbm)-Leu-ILys-Pro-D-Ala-NH2] (Ac-[d2Nal][dPhe(4-Cl)][d3Pal]S[Phe(4-NH2)](Dihydroorotyl(S))[dPhe(4-NHCONH2)]L[Lys(iPr)]P[dA]-NH2)	7	1.8	did not result in any formation of the hydantoin analogue	–	–
Z-Ser(tBu)-4Aph(Hor)-D-4Aph(tBu-Cbm)-Leu-OH.DCHA	–	–	–	1.3	0.3
